Here are results for one compound from patent US9908890B2, “Selective inhibitors of constitutive androstane receptor” (ST. JUDE CHILDREN'S RESEARCH HOSPITAL, priority 2014, dated 2018).

Data set [1] concerns CAR- and PXR-regulated genes in human primary hepatocytes. Briefly: Quantitative real-time PCR in human primary hepatocytes. It is filed as cell-based. The conditions noted are these: 48 h. From the text: (§1) RNA was extracted, cDNA synthesized, and gene expression analyzed by performing real-time PCR using Taqman probes for each gene. […] LS174T cells were maintained in 10% charcoal-dextran-treated, FBS media for 4 days before the experiment. […] Briefly, human primary hepatocytes (HPH) were maintained in William's E media with supplements for 4 days before treatment. […] RNA extracted was used for cDNA synthesis and measured by performing quantitative real-time PCR assays with Taqman probes.
Briefly, human primary hepatocytes (donor 5) were maintained in William's E Media with supplements for 4 days prior to treatment. […] RNA extracted was used for cDNA synthesis and measured by quantitative real-time PCR with Taqman probes. CYP2B6 and CYP3A4 mRNA were normalized to the internal control 18S and DMSO-treated samples were set to 1.
(§2) Cell lines or human hepatocytes were treated with chemicals for 24-48 hours before RNA was extracted and purified by using the Maxwell 16LEV simplyRNA tissue kit (Promega). Then, cDNA was prepared from 2 μg of RNA, and diluted cDNA was used to perform quantitative RT-PCR assays by using TaqMan probes (ABI; 7500 Thermocycler) with 18S as the internal standard.

Data set [2] has as its system CAR-regulated genes in HepG2-hCAR1 cells. Kind of data set: Quantitative real-time PCR in HepG2-hCAR1 cells. It is filed as cell-based, human.
Text: as §1
(§3) Briefly, LS174T were maintained in 10% charcoal-dextran treated-FBS media for 4 days prior to the experiment. […] For the data shown in both FIG. 12A and FIG. 12B, RNA extracted was used for cDNA synthesis and measured by quantitative real-time PCR with Taqman probes. MDR1 mRNA was normalized to the internal control 18S and DMSO treated samples were set to 1. *, p<0.05 when compared to DMSO samples.
as §2

The target in another data set is T1, GST-hCAR-LBD (Homo sapiens, UniProt Q14994).
T1 construct: purchased Life Technologies (Carlsbad, Calif.) or Invitrogen (Carlsbad, Calif.)
T1 sequence (Q14994 109-352 limits assumed): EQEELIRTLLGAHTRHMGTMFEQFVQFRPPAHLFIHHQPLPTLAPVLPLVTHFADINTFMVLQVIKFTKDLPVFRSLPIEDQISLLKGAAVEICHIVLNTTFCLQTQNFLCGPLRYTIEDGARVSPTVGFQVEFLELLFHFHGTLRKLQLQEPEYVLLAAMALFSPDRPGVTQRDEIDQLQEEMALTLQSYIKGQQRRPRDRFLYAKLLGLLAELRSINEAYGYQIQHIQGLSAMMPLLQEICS
Briefly: CoAct binding inverse agonist assay (LanthaScreen TR-FRET, fluorescent PGC-1α coactivator recruitment/repression). It is filed as biochemical.

For data set [3], the system named is CAR-regulated genes in LS174T cells. Briefly: Quantitative real-time PCR in LS174T cells. The settings on record: 1 μM CINPA1 or 5 μM PK11195, 24 h. It is filed as cell-based.
Text: as §1, §3, §2

As for `CCOC(=O)Nc1ccc2c(c1)N(C(=O)CN(CC)CC)c1ccccc1CC2` [CINPA1], the “CITCO-induced CAR transactivation of the CYP2B6 gene” value in data set [1] (1 μM CITCO plus CINPA1 (5, 1 or 0.3 μM for Donor 1, 2, 3)) was “effectively inhibited”. In addition, the “rifampicin-induced PXR-mediated gene expression” value in data set [1] (5 μM CINPA1 with 10 μM rifampicin) is “could not reduce”. Moreover, in data set [2] (HepG2-hCAR1, 0.1 μM CINPA1 or 1 μM PK11195, 24 h), the “MDR1 mRNA level” value is on record as “reduced MDR1 levels”. Moreover, in data set [2] (HepG2-hCAR1, 1 μM, 24 h), the “CYP2B6 mRNA level” value was “substantially and significantly attenuated”; the “CYP3A4 mRNA level” value is “substantially and significantly attenuated”. The “CAR-LBD interaction with PGC-1α coactivator peptide” value at GST-hCAR-LBD (dose response, FIG. 6A) is recorded as “efficiently inhibits”. Besides, on GST-hCAR-LBD (read-out: IC50 (CAR inverse agonistic activity)), the half-maximal inhibitory concentration (IC50) came out at 690 nM. In addition, in data set [3], the “CYP2B6 mRNA level” value is listed as “moderately reduced the levels of CYP2B6”, the “CYP3A4 mRNA level” value is recorded as “without significantly affecting CYP3A4” and the “MDR1 mRNA level” value is “reduced MDR1 levels”.
